Results as given in PubChem BioAssay (NCI).
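In this assay, cells in 96-well plates receive the compound at five concentrations for 48 hours. Endpoints are linearly interpolated between the surrounding concentrations. At the TGI there is no net growth.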

Tests used:
Assay in all cases: growth of human tumour cells (NCI), 48 h
SF-268 CNS = test system: SF-268 CNS
HCT-116 colon = test system: HCT-116 colon
BT-549 breast = test system: BT-549 breast
OVCAR-3 ovarian = test system: OVCAR-3 ovarian
SNB-19 CNS = test system: SNB-19 CNS
NCI/ADR-RES ovarian = test system: NCI/ADR-RES ovarian
MDA-N = test system: MDA-N
SNB-75 CNS = test system: SNB-75 CNS
MOLT-4 leukemia = test system: MOLT-4 leukemia
SK-MEL-2 melanoma = test system: SK-MEL-2 melanoma
OVCAR-8 ovarian = test system: OVCAR-8 ovarian
SK-MEL-28 melanoma = test system: SK-MEL-28 melanoma
HS 578T breast = test system: HS 578T breast
T-47D breast = test system: T-47D breast
UACC-62 melanoma = test system: UACC-62 melanoma
A549 NSCLC = test system: A549 NSCLC
MCF7 breast = test system: MCF7 breast
COLO 205 colon = test system: COLO 205 colon
NCI-H522 lung = test system: NCI-H522 lung

SMILES | TGI (SF-268 CNS) [µM] | TGI (HCT-116 colon) [µM] | TGI (BT-549 breast) [µM] | TGI (OVCAR-3 ovarian) [µM] | TGI (SNB-19 CNS) [µM] | TGI (NCI/ADR-RES ovarian) [µM] | TGI (MDA-N) [µM] | TGI (SNB-75 CNS) [µM] | TGI (MOLT-4 leukemia) [µM] | TGI (SK-MEL-2 melanoma) [µM] | TGI (OVCAR-8 ovarian) [µM] | TGI (SK-MEL-28 melanoma) [µM] | TGI (HS 578T breast) [µM] | TGI (T-47D breast) [µM] | TGI (UACC-62 melanoma) [µM] | TGI (A549 NSCLC) [µM] | TGI (MCF7 breast) [µM] | TGI (COLO 205 colon) [µM] | TGI (NCI-H522 lung) [µM]
CCCC/C=C/C/C=C/CCCCCCCCC(=O)OCC1CCCN2CCCCC12 (stereo not given) | > 100 | > 100 | > 100 | > 100 | > 100 | > 100 | > 100 | > 100 | > 100 | > 100 | > 100 | > 100 | > 100 | 88.6 | > 100 | > 100 | > 100 | > 100 | –
CN1CCN(c2ccc3[nH]c(-c4cc(O)c5c(nc(CO)n5C)c4O)nc3n2)CC1 | > 100 | > 100 | > 100 | > 100 | > 100 | > 100 | > 100 | > 100 | 48.2 | 51.7 | > 100 | > 100 | > 100 | > 100 | 27.8 | > 100 | – | 43.3 | > 100
O=c1cc(N2CCNCC2)nc2ccccn12 | > 100 | > 100 | > 100 | > 100 | > 100 | > 100 | > 100 | > 100 | > 100 | > 100 | > 100 | – | > 100 | > 100 | > 100 | > 100 | > 100 | > 100 | > 100
CN(C)c1ccc(/C=C2/NC(=S)NC2=O)cc1 | > 100 | > 100 | > 100 | > 100 | > 100 | > 100 | > 100 | > 100 | > 100 | > 100 | > 100 | > 100 | > 100 | > 100 | > 100 | > 100 | > 100 | > 100 | > 100
COc1ccccc1NC(=S)Nc1cc(C)cc(C)n1 | > 100 | > 100 | > 100 | > 100 | > 100 | > 100 | > 100 | > 100 | > 100 | > 100 | > 100 | > 100 | > 100 | > 100 | > 100 | > 100 | > 100 | > 100 | –
O=C1CN(C(=O)C2CCCN2C(=O)C2CCCN2)C(=O)CN1 (stereo not given) | > 100 | > 100 | > 100 | > 100 | > 100 | > 100 | > 100 | > 100 | > 100 | – | > 100 | > 100 | > 100 | > 100 | > 100 | > 100 | > 100 | > 100 | > 100
COc1ccc(/C=C2\CCC(C)C3C2=NN(c2ccccc2)C3c2ccc(OC)c(OC)c2)cc1OC (stereo not given) | 30.4 | 5.5 | 21.5 | > 100 | 36.2 | 18.3 | 29.2 | 6.37 | 11 | 7.87 | 25.3 | 31.6 | > 100 | 9.08 | 12.2 | – | 21.8 | 17.2 | –
CC(C)(C)C(=O)OCOP(=O)(OCOC(=O)C(C)(C)C)OCC1OC(n2ccc(=O)[nH]c2=O)C(N=[N+]=[N-])C1O (stereo not given) | 17.8 | 12 | 14.9 | 3.25 | 25.7 | 23.5 | 15.8 | 14.1 | 31.4 | – | 12.9 | 24 | 7.64 | 11.7 | 14.6 | 14 | 14.7 | 13.5 | 17.5
O=S(=O)(SC1=NCCN1)c1ccc2ccccc2c1 | 52.5 | 62.4 | 83.9 | 97.2 | 39.1 | 51.8 | 43.9 | 68 | 56.8 | 80 | 40.5 | > 100 | > 100 | > 100 | > 100 | 86.3 | > 100 | 37.7 | 46.3
O=c1oc2ccccc2cc1-c1csc(Nc2ccc(F)cc2)n1 | 9.09 | 5.65 | 17.4 | 19.6 | > 37.6 | 13 | 16.5 | 4.57 | > 25.4 | 39.2 | 23.5 | 6.6 | 4.61 | 10.7 | 43.9 | 3.23 | 15.5 | 14.9 | 3.82
CC(=O)c1sc2c(c1OC(=O)c1ccco1)c(=O)n(-c1ccccc1)c(=S)n2-c1ccccc1 | 87.2 | 41.1 | 62.3 | > 100 | 88.2 | 51.2 | 82.6 | 78.1 | 53.8 | 39.2 | > 100 | 61.9 | 20 | 36.4 | – | > 100 | 55.4 | 37.9 | 39.7
C=C1[C@H](OC(C)=O)[C@H]2[C@@H](OC(C)=O)[C@@H](C)C[C@]2(C)C(=O)[C@H](C)/C=C/C(C)(C)C(=O)[C@H](OCC(C)C)[C@H]1OC(C)=O | > 25 | > 25 | > 25 | > 25 | > 25 | > 25 | > 25 | > 25 | > 25 | > 25 | > 25 | – | > 25 | > 25 | > 25 | – | > 25 | > 25 | > 25
COc1ccc(C(=O)c2sc(N(C)C)nc2-c2ccccc2)cc1 | > 100 | > 100 | 75.6 | 48.6 | > 100 | 49.8 | 53.8 | 80.1 | > 100 | 76.5 | – | > 100 | > 100 | > 100 | > 100 | > 100 | > 100 | > 100 | –
O=C1CSSCC(=O)Nc2ccccc2N1 | > 100 | > 100 | > 100 | > 100 | > 100 | > 100 | > 100 | – | > 100 | > 100 | > 100 | > 100 | > 100 | > 100 | > 100 | > 100 | – | > 100 | > 100
Cc1nc(-c2cc3c(ccc4ccccc43)oc2=O)cs1 | > 100 | > 100 | 57.8 | – | > 100 | > 100 | > 100 | 75.2 | > 100 | > 100 | > 100 | > 100 | 99.3 | > 100 | > 100 | > 100 | > 100 | > 100 | > 100
CO/C(N)=C(\C#N)N=Cc1ccco1 | > 100 | > 100 | > 100 | > 100 | – | > 100 | > 100 | > 100 | > 100 | > 100 | > 100 | > 100 | > 100 | > 100 | > 100 | > 100 | > 100 | > 100 | > 100
CC1(C)C2CCC(CN)(C2)C1N (stereo not given) | > 100 | > 100 | > 100 | > 100 | > 100 | > 100 | > 100 | > 100 | > 100 | > 100 | > 100 | > 100 | > 100 | > 100 | > 100 | > 100 | > 100 | > 100 | –
COC(=O)C1=C(O)C(C(=O)OC)[C@]2(O)[C@H](C(=O)OC)[C@H]1C[C@@H](c1ccc(Cl)cc1)[C@H]2C(=O)OC (stereo not given in full) | 29 | 17.3 | 38.9 | 13.4 | 29.8 | > 100 | 22.5 | 38.7 | > 100 | 6.51 | > 100 | 21.4 | 30.2 | > 100 | 24.9 | 89.5 | 24.1 | 25.1 | –
CCOC(=O)c1cc2c([nH]1)c(O)cc1c2ccn1Cc1ccccc1 | 51.3 | 23.8 | 32.2 | 31.6 | 28.2 | 38.5 | 29.5 | 50.2 | 14.1 | 36.6 | 33.4 | 33.8 | 77.4 | 11.9 | 28.8 | 30.3 | 44.4 | 39.8 | –
CC(C)(C)/C(=N\Nc1nc2ccccc2[nH]1)c1ccccn1 | > 100 | 78 | > 100 | 73.3 | > 100 | > 100 | > 100 | – | > 100 | > 100 | > 100 | > 100 | > 100 | > 100 | > 100 | > 100 | 67.2 | > 100 | > 100
Clc1ccccc1-c1nc2ccc(C34CC5CC(CC(C5)C3)C4)cc2[nH]1 | > 100 | > 100 | 43.5 | – | 21.6 | > 100 | > 100 | 21.6 | > 100 | 40.8 | 22.8 | > 100 | 89.9 | 27.8 | 27.1 | 23.4 | 23.4 | > 100 | 43.1
O=C(O)COCC(=O)N(CCOCCN(Cc1ccccc1)C(=O)COCC(=O)O)Cc1ccccc1 | > 100 | > 100 | > 100 | > 100 | > 100 | > 100 | > 100 | – | > 100 | > 100 | > 100 | > 100 | > 100 | > 100 | > 100 | > 100 | > 100 | > 100 | > 100
CC(=O)Oc1cc(Cl)c(C)c2c1[C@H]1CC[C@]3(C)[C@@H](OC(C)=O)CC[C@H]3[C@@H]1CC2 | > 100 | > 100 | > 100 | > 100 | > 100 | > 100 | > 100 | > 100 | > 100 | – | > 100 | > 100 | > 100 | > 100 | > 100 | > 100 | > 100 | – | > 100
O=C1N=C(SC2OC(CO)C(O)C(O)C2O)S/C1=C\c1ccccc1 (stereo not given) | > 100 | – | > 100 | > 100 | > 100 | > 100 | > 100 | > 100 | > 100 | > 100 | > 100 | > 100 | > 100 | > 100 | > 100 | > 100 | > 100 | – | > 100
C[N+](C)(C)CCCSc1nc2ccccc2[nH]1 | > 100 | > 100 | > 100 | > 100 | > 100 | > 100 | > 100 | – | > 100 | > 100 | > 100 | > 100 | > 100 | > 100 | > 100 | > 100 | > 100 | > 100 | > 100
Cc1ccc([N+](=O)[O-])cc1S(=O)(=O)Nc1ccc(C2=NN(c3ccc([N+](=O)[O-])cc3[N+](=O)[O-])C(c3cccs3)C2)cc1 (stereo not given) | 69.9 | 29.3 | 49.8 | 34.4 | > 100 | 41.4 | 31.4 | 81.3 | 53.3 | 32.7 | 92.1 | > 100 | 79.1 | > 100 | – | > 100 | 80.1 | 54.5 | 39
